Consider 43 compounds from patent EP4035684A1, “AFFINITY ILLUDOFULVENE CONJUGATES” (AF Chemical LLC, priority 2019, dated 2022).

Where a SMILES comes first, the peptide text is derived from it. [ ]: non-standard residue; d: D form. The star is where a group is joined. Dolaproine = CO[C@@H]([C@@H]1CCCN1)[C@@H](C)C(=O)O; Dil = CC[C@H](C)[C@H](NC)[C@@H](CC(=O)O)OC; X1 = C[C@@H](N*)[C@@H](O)c1ccccc1; NMeV = CN[C@H](C(=O)O)C(C)C

The test system of data set [1] is NCI 60 cell line panel. Briefly: NCI DTP 60 cell line screen assay. Conditions: for Cytotoxicity: ability to actually kill tumor cells versus only inhibiting growth. From the text:
An ADC is engulfed by a tumor cell, transported to the endosomes (pH < 6.0) and then into the lysozomes (pH < 4). […] 4) Cancer cells can become resistant to various toxins and drugs through the development of what is termed multi-drug resistance. This process is known to occur through several different mechanisms.

In data set [2] the test system is MV522 cell line. Briefly: cells. In kind it is cell-based.
For data set [3], the system named is 8392B cell line. As to the kind of experiment: Two hour toxicity: inhibition of DNA synthesis activity, nontarget cell line. It counts as cell-based. Conditions: read-out: Mean IC50 value (nM) ± SD, N=3 unless otherwise indicated; 8392B Nontarget Cell Line; 2 hr exposure; 8392B nontarget cell line, 2 hr exposure; mean ± SD, N=3 unless otherwise indicated.
Data set [4] relates to 8392B cell line. As to the kind of experiment: cells. It counts as cell-based. The conditions noted are these: read-out: Mean IC50 value (nM) ± SD, N=3 unless otherwise indicated, 8392B Nontarget Cell Line, 48 hr exposure, 8392B nontarget cell line, mean ± SD, N=3 unless otherwise indicated.

On to `COc1cc2cc(c1Cl)N(C)C(=O)C[C@H](OC(=O)[C@H](C)N(C)C(=O)CCS)[C@]1(C)O[C@H]1[C@H](C)[C@@H]1C[C@@](O)(NC(=O)O1)[C@H](OC)/C=C/C=C(\C)C2` [DM1, reference compound], for which the Cytotoxicity result in data set [1] was “not cytotoxic and No”.
Same read-out and setting: for `C/C(=C\c1csc(C)n1)[C@@H]1C[C@@H]2O[C@@H]2CCC[C@H](C)[C@H](O)[C@@H](C)C(=O)C(C)(C)[C@@H](O)CC(=O)O1` [Epothilone A, reference compound] the value was “not cytotoxic and No”.
Take `CC[C@H](C)[C@@H]([C@@H](CC(=O)N1CCC[C@H]1[C@H](OC)[C@@H](C)C(=O)N[C@H](C)[C@@H](O)c1ccccc1)OC)N(C)C(=O)[C@@H](NC(=O)[C@@H](NC)C(C)C)C(C)C` [MMAE, N-methylvaline-valine-dolaisoleuine-dolaproine-norephedrine, reference compound] (H-[NMeV]V[Dil][Dolaproine]-X1): in data set [1], the “MDR Activity” value is “No” and the Cytotoxicity entry is “No”. In addition, in data set [1] (listed as MMA), the “MDR Activity” value is listed as “not MDR active” and the Cytotoxicity entry is “not cytotoxic”.
In the case of `CC1=CC2=C(C)C3(CC3)[C@@](C)(O)/C(=N/O)C2=C1` [analog 224, (R,E)-6'-hydroxy-2',4',6'-trimethylspiro[cyclopropane-1,5 '-inden]-7'(6'H)-one oxime], the toxicity result in data set [2] (target and nontarget cell line, in words) is listed as “minimal toxicity”.
Take `CC(=O)OC[C@]1(C)C=C2C(=O)[C@](C)(O)C3(CC3)C(C)=C2[C@H]1OC(=O)N(C)CCN(C)C(=O)OC(C)(C)C` [analog 334, ((2'S,3'R,6'R)-3'-(((2-((tert-butoxycarbonyl)(methyl)amino)ethyl)(methyl)carbamoyl)oxy)-6'-hydroxy-2',4',6'-trimethyl-7'-oxo-2',3',6',7'-tetrahydrospiro[cyclopropane-1,5' - inden]-2' - yl)methylacetate]: in data set [1], the Cytotoxicity entry is “cytotoxic”.
On the same count and under the same terms, the result for `CC1=C2C(=C[C@@](C)(COS(C)(=O)=O)[C@@H]2O)C(=O)[C@](C)(O)C12CC2` [analog 362, ((2'S,3'R,6'R)-3',6'-dihydroxy-2',4',6'-trimethyl-7'-oxo-2',3',6',7'-tetrahydrospiro[cyclopropane-1,5'-inden]-2'-yl)methyl methanesulfonate] reads “cytotoxic”; that for `CC(=O)O[C@@H]1C2=C(C)C3(CC3)[C@@](C)(O)C(=O)C2=C[C@@]1(C)CO` [analog 371, (2'S,3'R,6'R)-6'-hydroxy-2'-(hydroxymethyl)-2',4',6'-trimethyl-7'-oxo-2',3',6',7'-tetrahydrospiro[cyclopropane-1,5'-inden]-3'-yl acetate], “cytotoxic”; that for `CC1=C2C(=C[C@@](C)(C=O)[C@@H]2O)C(=O)[C@](C)(O)C12CC2` [analog 383, (2'R,3'R,6'R)-3',6'-dihydroxy-2',4',6'-trimethyl-7'-oxo-2',3',6',7'-tetrahydrospiro[cyclopropane-1,5'-indene]-2'-carbaldehyde], “cytotoxic”.
With `CC1=C(CNO)C2=C(C)C3(CC3)[C@@](C)(O)C(=O)C2=C1` [analog 394, (R)-6'-hydroxy-3'-((hydroxyamino)methyl)-2',4',6'-trimethylspiro[cyclopropane-1,5'-inden]-7'(6'H)-one], the Cytotoxicity entry in data set [1] is “cytotoxic”.
Broadly, the IC50 is the concentration at which inhibition is half-maximal. Take `CC(=O)ON(C(C)=O)c1ccc(C(=O)OC[C@]2(C)C=C3C(=O)[C@](C)(O)C4(CC4)C(C)=C3C2O)cc1` (stereo partly drawn) [compound 136]: in data set [3], the IC50 was over 6200 nM.
On the same count and under the same terms, for `CC1=C(CSc2nc(O)c3nccnc3n2)C2=C(C)C3(CC3)[C@@](C)(O)C(=O)C2=C1` [compound 153] the value was over 90000 nM.
On to `CC1=C(CCCOC(=O)C(N)CC(C)C)C2=C(C)C3(CC3)[C@@](C)(O)C(=O)C2=C1` (stereo partly drawn) [compound 176], for which, in data set [1], the “MDR Activity” value is “Yes” and the Cytotoxicity result is reported as “Yes”.
As for `CC1=C(CN=[N+]=[N-])C2=C(C)C3(CC3)[C@@](C)(O)C(=O)C2=C1` [compound 193], in data set [4], the IC50 is over 11000 nM.
On the same count and under the same terms, the result for `CC1=C(CCCOC(=O)[C@@H]2CCCN2)C2=C(C)C3(CC3)[C@@](C)(O)C(=O)C2=C1` [compound 196] reads over 9200 nM.
For the compound `CC1=C(COc2ccc([N+](=O)[O-])cc2)C2=C(C)C3(CC3)[C@@](C)(O)C(=O)C2=C1` [compound 198], the IC50 is over 8200 nM in data set [3] and over 82000 nM in data set [4].
Taken in the same sequence, the figures for `CC1=C(COc2ccccc2)C2=C(C)C3(CC3)[C@@](C)(O)C(=O)C2=C1` [compound 199] were over 93000 nM and over 9300 nM.
Turning to `CC1=C(CCCNC(=O)[C@@H]2CCCN2)C2=C(C)C3(CC3)[C@@](C)(O)C(=O)C2=C1` [compound 202], the IC50 is over 62000 nM in data set [3] and over 6200 nM in data set [4].
Consider `CC1=C(CCCOC(=O)[C@@H]2CCCN2C(=O)[C@@H](N)CO)C2=C(C)C3(CC3)[C@@](C)(O)C(=O)C2=C1` [compound 203], for which the IC50 in data set [4] is over 5500 nM.
For the compound `CC1=C(CCCOC(=O)[C@@H]2CCCN2C(=O)[C@H](CO)NC(=O)[C@@H](N)CO)C2=C(C)C3(CC3)[C@@](C)(O)C(=O)C2=C1` [compound 209], in data set [3], the IC50 is over 90000 nM.
As for `CC1=C(COC(=O)CCCCCN2C(=O)C=CC2=O)C2=C(C)C3(CC3)[C@@](C)(O)C(=O)C2=C1` [compound 217], the IC50 in data set [4] was over 7000 nM.
Consider `CC1=C2C(=CC(C)(C)C2OC(=O)c2ccc(S(=O)(=O)F)cc2)C(=O)C(C)(O)C12CC2` (stereo not drawn) [compound 222], for which the IC50 in data set [3] was 9300 nM.
On the same count and under the same terms, for `CC(=O)ON(C(C)=O)C(=O)OCCCC1=C(C)C=C2C(=O)[C@](C)(O)C3(CC3)C(C)=C21` [compound 240] the value was over 24000 nM; for `CC1=C([C@@H]2CCOS(=O)(=O)N2)C2=C(C)C3(CC3)[C@@](C)(O)C(=O)C2=C1` [compound 259], over 85000 nM; for `CC1=C(CCCNC(=O)N2CCC(N3CCCCC3)CC2)C2=C(C)C3(CC3)[C@@](C)(O)C(=O)C2=C1` [compound 260], over 64000 nM.
Still for that read-out and setting: the result for `COC(=O)C[S+]([O-])CC1=C(C)C=C2C(=O)[C@](C)(O)C3(CC3)C(C)=C21` (stereo partly drawn) [compound 263] reads 124000 ± 18000 nM; that for `CON(CC1=C(C)C=C2C(=O)[C@](C)(O)C3(CC3)C(C)=C21)C(=O)CN` [compound 267], over 90000 nM.
For the compound `CC1=C(CCCNC(=O)C(F)(F)F)C2=C(C)C3(CC3)[C@@](C)(O)C(=O)C2=C1` [compound 268], the concentration for half-maximal inhibition (IC50) in data set [4] is over 8000 nM.
As for `COc1ccc(NS(=O)(=O)OCC2=C(C)C=C3C(=O)[C@](C)(O)C4(CC4)C(C)=C32)cc1` [compound 269], the IC50 in data set [4] is over 7000 nM.
On to `CC1=C(CN)C2=C(C)C3(CC3)[C@@](C)(O)C(=O)C2=C1` [compound 270], for which, in data set [3], the IC50 was over 84000 nM.
Turning to `CC1=C(CNS(C)(=O)=O)C2=C(C)C3(CC3)[C@@](C)(O)C(=O)C2=C1` [compound 271], the IC50 in data set [3] is over 93000 nM; in data set [4], over 9300 nM.
Taken in the same sequence, the figures for `CC1=C(CCCNC(=O)OCC2=C(C(=O)O)N3C(=O)[C@H](NC(=O)Cc4cccs4)[C@@H]3S(=O)(=O)C2)C2=C(C)C3(CC3)[C@@](C)(O)C(=O)C2=C1` [compound 274] were over 46000 nM and over 4500 nM.
Taken in the same sequence, the figures for `CC1=C(CNC(=O)C2CCCN2)C2=C(C)C3(CC3)[C@@](C)(O)C(=O)C2=C1` (stereo partly drawn) [compound 275] were over 62000 nM and over 6200 nM.
On to `CC1=C(CNC(=O)C(N)CC(C)C)C2=C(C)C3(CC3)[C@@](C)(O)C(=O)C2=C1` (stereo partly drawn) [compound 276], for which the IC50 in data set [3] was over 61000 nM; in data set [4], over 6100 nM.
As for `CONC(=O)NCC1=C(C)C=C2C(=O)[C@](C)(O)C3(CC3)C(C)=C21` [compound 278], the IC50 in data set [3] was over 94000 nM; in data set [4], over 9400 nM.
On to `CC1=C(CNS(N)(=O)=O)C2=CC3(CC3)C(C)(O)C(=O)C2=C1` (stereo not drawn) [compound 283], for which the half-inhibitory concentration (IC50) in data set [4] is over 9300 nM.
With `CC1=C(Cn2c(=O)cc[nH]c2=O)C2=C(C)C3(CC3)[C@@](C)(O)C(=O)C2=C1` [compound 284], in data set [4], the 50% inhibitory concentration (IC50) is over 8800 nM.
Same read-out and setting: for `CC1=C(Cn2cc(F)c(=O)[nH]c2=O)C2=C(C)C3(CC3)[C@@](C)(O)C(=O)C2=C1` [compound 286] the value was over 8800 nM.
As for `CC1=C(CCCOC(=O)CNC(=O)OC(C)(C)C)C2=C(C)C3(CC3)[C@@](C)(O)C(=O)C2=C1` [compound 298], the IC50 in data set [2] (read-out: Mean IC50 value (nM) ± SD, N=3 unless otherwise indicated, MV522 Target Cell Line, 2 hr exposure, MV522 target cell line, 2 hr exposure, mean ± SD, N=3 unless otherwise indicated) was over 7000 nM.
Take `CC(=O)OC[C@]1(C)C=C2C(=O)[C@](C)(O)C3(CC3)C(C)=C2[C@H]1OC(=O)N(C)CCN(C)C(=O)OC(C)(C)C` [compound 334]: in data set [1], the “MDR Activity” value was “Yes” and the Cytotoxicity entry is reported as “Yes”.
On to `CC1=C2C(=C[C@@](C)(COS(C)(=O)=O)[C@@H]2O)C(=O)[C@](C)(O)C12CC2` [compound 362], for which, in data set [1], the “MDR Activity” value was “Yes” and the Cytotoxicity result is recorded as “Yes”.
In the case of `CC(=O)O[C@@H]1C2=C(C)C3(CC3)[C@@](C)(O)C(=O)C2=C[C@@]1(C)CO` [compound 371], in data set [1], the “MDR Activity” value is on record as “Yes” and the Cytotoxicity entry is listed as “Yes”.
In the case of `CC1=C2C(=C[C@@](C)(C=O)[C@@H]2O)C(=O)[C@](C)(O)C12CC2` [compound 383], in data set [1], the “MDR Activity” value is given as “Yes” and the Cytotoxicity entry is on record as “Yes”.
Regarding `CC1=C(CNO)C2=C(C)C3(CC3)[C@@](C)(O)C(=O)C2=C1` [compound 394], in data set [1], the “MDR Activity” value is “Yes” and the Cytotoxicity result was “Yes”.
